Assay: Solubility in water at 20° C.
Format: physicochemical
From the text: The above hydrophobic liquid (B) is a hydrophobic liquid that can dissolve or disperse well the above active ingredient (A) and is not a surfactant. In this case, the “hydrophobicity” of this hydrophobic liquid (B) should disperse as liquid particles containing the active ingredient (A), without dissolving into the water-based composition containing the water-soluble polymer substance (C) and the excipient (D) described below. […] When this “hydrophobicity” is insufficient, it becomes difficult to remain dispersed in the composition while containing the above active ingredient (A), and all or much of the active ingredient (A) becomes contained in the composition as crystals, which makes it impossible to achieve the purpose of the present invention.

solubility in water at 20° C.: exceeding 10 mass %
Structure (SMILES): CC(O)CO (stereo not shown) [propylene glycol]

From patent US20240074968A1, “ORAL PHARMACEUTICAL COMPOSITION AND METHOD FOR PRODUCING PARTICULATE FORMULATION COMPRISING COMPOSITION” (Sunsho Pharmaceutical Co., Ltd., priority 2016, published 2024)
